# Assay results published in patent EP0998477B1, “Alkyl-4-silylheterocyclic phenols and thiophenols as antioxidant agents” (priority 1997, dated 1998).
# pIC50: −log10 of the molar value. Where two headings read alike, the source gives them in different places.
# Tests used:
# [1] = test system: serum lipids; test: In vivo screening in rats: TBARS assay on serum (CuSO4-initiated oxidation); set-up: species or system Male Sprague-Dawley rats; conditions: thiobarbituric acid reactive substances (nmoles MDA) in serum, percent of control; diet 0.3% for 4 days, N = 5 rats
# From the text: A typical experiment consists of 4-6 groups of rats (N = 5 per group) with 1 group being a control which receives no MDL compound and the other groups being treated with 0.3% MDL compound. Some of the compounds are either repeated at 0.3% or evaluated again at the lower dose of 0.1 %. House Male Sprague-Dawley rats, 50-100 g, (Harlan Laboratories, Indianapolis, IN) in groups of 5, feeding ad libitum water and Purina Rodent chow (#5002) with or without MDL compound as a dietary admixture for 4 days. Make dietary admixtures (0.3%) by mixing 1.2 grams of an MDL compound with 400 grams of Purina rodent chow (#5002). Mix the MDL compound with approximately 50 grams of food using a mortar and pestle. This is added to the remainder of the food and mixed for 3 hours on a rotary mixer. In the morning of day 5, anesthetize non-fasted rats with carbon dioxide, and collect blood by cardiac puncture. […] Deaths are recorded as mortality. […]
# In this assay the oxidation of serum lipids is initiated with CuSO4, resulting in the formation of aldehydes, such as malondialdehyde (MDA). Upon incubation with thiobarbituric acid, the absorbance of the aldehydes can be detected at 530-540 nm. […] Measure absorbances at 540 nm using a Biotek model EL311 microplate reader. The nmoles of MDA produced are calculated from a standard curve of 0 to 10 nmoles of MDA prepared from malonaldehyde bis(dimethylacetal). […]
# [2] = test system: ICAM-1; test: Inhibition of cytokine-induced ICAM-1 expression in proliferating HUVEC (cell-surface ELISA); assay type: cell-based, human
# Method: (§1) Plate proliferating human umbilical vein endothelial cells (HUVEC) or human aortic smooth muscle cells (HASMC) from Clonetics (San Diego, CA) onto 96-well plates in 100 µL medium per well at 20,000 cells per cm^2. Maintain the cultures in growth medium (EGM or SMGM2, Clonetics, San Diego, CA) for two days prior to addition of cytokines or drugs. Add cytokines plus or minus compounds for 20 to 24 hours prior to analysis for adhesion molecule levels. Add tumor necrosis factor (Genzyme, Cambridge, MA) to cultures at 500-1000 units/mL to stimulate adhesion molecule expression. Add interleukin-4 (GIBCO-BRL, Gaithersburg, MD) to cultures at 100-200 pg/mL to stimulate VCAM-1 expression. […] Remove the culture medium, and wash the monolayers twice with Hanks buffered saline solution (HBSS) at room temperature. Add the primary antibody (anti-human VCAM-1 from Upstate Biotechnology, Inc., Lake Placid, NY or anti-human ICAM-1 from Immunotech, Inc., Westbrook, ME) to each well (1 µg/mL in HBSS plus 5% newborn calf serum, GIBCO-BRL, Gaithersburg, MD) and incubate at 37°C for 1 hr. Wash the wells twice with HBSS, then add 100 µL of a 1/1000 dilution of goat anti-mouse IgG conjugated to horse radish peroxidase (BioRad, Hercules, CA) in HBSS plus 5% newborn calf serum to each well and incubated for 1 hr at 37°C. Wash the wells three times with HBSS, then add 100 µL of TMB substrate (BioRad, Hercules, CA) to each well. Stop the reaction after blue color develops by addition of 50 µL of 1 N H2SO4. Measure absorbance at 450 nm with a plate reader.
# The IC50 value is defined as the drug concentration that inhibits the cytokine-induced adhesion molecule expression by 50%. Maximal values for adhesion molecule expression in cytokine-induced cultures was subtracted from the basal level of adhesion molecule expression (minus cytokines) in the cultures to detoermine the level of induction. Each drug concentration was tested in quadruplicate wells. […]
# [3] = male, Sprague-Dawley, rat, in vivo
# From the text: (§2) A typical experiment consists of 4-6 groups of rats (N = 5 per group) with 1 group being a control which receives no MDL compound and the other groups being treated with 0.3% MDL compound. Some of the compounds are either repeated at 0.3% or evaluated again at the lower dose of 0.1 %. House Male Sprague-Dawley rats, 50-100 g, (Harlan Laboratories, Indianapolis, IN) in groups of 5, feeding ad libitum water and Purina Rodent chow (#5002) with or without MDL compound as a dietary admixture for 4 days. Make dietary admixtures (0.3%) by mixing 1.2 grams of an MDL compound with 400 grams of Purina rodent chow (#5002). Mix the MDL compound with approximately 50 grams of food using a mortar and pestle. This is added to the remainder of the food and mixed for 3 hours on a rotary mixer. In the morning of day 5, anesthetize non-fasted rats with carbon dioxide, and collect blood by cardiac puncture. Sacrifice rats by cervical dislocation. Record body weights and liver weights in grams. Record food consumption as grams • day^-1 • rat^-1. Deaths are recorded as mortality. Use aliquots of fresh serum for clinical chemistries, thiobarbituric acid reactive substances (TBARS) and conjugated diene measurements. Freeze aliquots of serum (∼ 0.5mL) and whole livers at -20°C for compound and metabolite concentration determination at a later time.
# Determine serum and liver concentrations of parent compound and the metabolites, bisphenol and diphenoquinone, by reverse phase HPLC using a Waters 990 Powerline system. Homegenize livers (1 gram samples) with 5.0mL PBS, pH 7.4, using a Polytron tissue homogenizer at setting 5 for 20-30 seconds. Extract serum or liver homogenates as follows: add 100µL of either serum or homogenate to 2.0mL diethyl ether: ethanol (3:1) while vortexing the tube. Cap the sample tubes and centrifuge for 10 min at 5°C at 3500 rpm in a Beckman GPKR centrifuge with a GH 3.7 rotor. Transfer the supematants to clean tubes and dry under N2. Reconstitute samples with 200µL of acetonitrile : hexane: 0.1 M ammonium acetate (90: 6.5 : 3.5, by vol.). Then, inject 100µL onto a Waters Deltapak C18-300 Å column, and elute with an 83% acetonitrile : 17% water mobile phase at a flow rate of 1.5mL/min. Record absorbances at the wavelengths of 240, 254, and 420nm. Calculate compound concentrations from known quantities of authentic parent compounds after correction for recovery. […]. Calculate concentrations as µg/mL of serum and µg/g of liver.
# [4] = test system: VCAM-1; test: Inhibition of cytokine-induced VCAM-1 expression in proliferating HUVEC (cell-surface ELISA); assay type: cell-based; conditions: Homo sapiens, coincubated with tumor necrosis factor-alpha and compound for 20 hr, average of two runs
# Method: as §1, with “Wash the wells three times with HBSS, then add 100 µL of TMB substrate (BioRad, Hercules, CA) to each well. Stop the reaction after blue color develops by addition of 50 µL of 1 N H2SO4.” left out, “reader. […]” for “reader.”
# [5] = In vivo screening in rats: serum clinical chemistries; set-up: species or system Male Sprague-Dawley rats; conditions: percent of control, diet 0.3% for 4 days, N = 5 rats; for ALT: alanine aminotransferase in serum; for ALP: alkaline phosphatase in serum; for AST: aspartate aminotransferase in serum; for GLUC: glucose in serum; for CHOL: total cholesterol in serum; for TRIG: triglycerides in serum
# From the text: as §2
# Allow blood to clot at room temperature for 30 minutes. Obtain serum after centrifugation for 10 min at 4°C at 3000 rpm in a Beckman J-6M/E centrifuge with a JS-4.2 rotor. Analyze fresh serum by a COBAS MIRA S autoanalyzer (Roche Diagnostics) using Roche diagnostic reagents for the following clinical chemistry measurements: alkaline phosphatase (ALP, kit # 44553), alanine transaminase (ALT, kit # 42375), aspartate aminotransferase (AST, kit # 42381), total cholesterol (CHOL, kit # 44334), triglyceride (TG, kit # 44120), and glucose (GLU, kit # 44558). Calculate ALP, ALT, and AST as units/L. Calculate cholesterol, triglycerides, and glucose as mg/dL.
# [6] = In vivo screening in rats: animal parameters (food, body weight, liver weight, mortality); set-up: species or system Male Sprague-Dawley rats; conditions: diet 0.3% for 4 days, N = 5 rats; for mortality: deaths per group; for food: grams eaten per day per rat; for food / lw/bw / body wt.: percent of control; for lw/bw: liver weight/body weight; for body wt.: weight in grams
# From the text: as §2
# [7] = test system: serum lipids; test: In vivo screening in rats: conjugated diene lag phase of pooled serum; set-up: species or system Male Sprague-Dawley rats; conditions: mean of 2 determinations of pooled serum (N = 5), not normalized, Control = 61 min., diet 0.3% for 4 days
# From the text: A typical experiment consists of 4-6 groups of rats (N = 5 per group) with 1 group being a control which receives no MDL compound and the other groups being treated with 0.3% MDL compound. Some of the compounds are either repeated at 0.3% or evaluated again at the lower dose of 0.1 %. House Male Sprague-Dawley rats, 50-100 g, (Harlan Laboratories, Indianapolis, IN) in groups of 5, feeding ad libitum water and Purina Rodent chow (#5002) with or without MDL compound as a dietary admixture for 4 days. Make dietary admixtures (0.3%) by mixing 1.2 grams of an MDL compound with 400 grams of Purina rodent chow (#5002). Mix the MDL compound with approximately 50 grams of food using a mortar and pestle. This is added to the remainder of the food and mixed for 3 hours on a rotary mixer. In the morning of day 5, anesthetize non-fasted rats with carbon dioxide, and collect blood by cardiac puncture. Sacrifice rats by cervical dislocation. Record body weights and liver weights in grams. Record food consumption as grams • day^-1 • rat^-1. Deaths are recorded as mortality. […]
# Conjugated diene lag phase is another indicator of the oxidation of lipids. […] Measure the absorbances of all cuvettes and set the instrument baseline to zero using the lowest absorbing sample. […] Record the absorbance of each cuvette at 2 min intervals for a period of 840 min. […]
Structure (SMILES),TBARS [1] [%],"pIC50 ([2]; Homo sapiens, coincubated with tumor necrosis factor-alpha and compound for 20 hr, average of two runs, except MDL 107,695 where both values are shown, read-out: ICAM-1 IC50)",Liver Parent [3] [µg/g liver],Serum Parent [3],pIC50 [4],ALT [5] [%],ALP [5] [%],AST [5] [%],GLUC [5] [%],CHOL [5] [%],TRIG [5] [%],mortality [6] [%],food [6] [%],lw/bw [6] [%],body wt. [6] [%],CONJ. DIENE [7] [min],"pIC50 ([2]; Homo sapiens, 20 h, read-out: ICAM-1 IC50, HUVEC, coincubated with tumor necrosis factor-alpha and compound for 20 hr, average of two runs, except MDL 107,695 where both values are shown)","pIC50 ([2]; read-out: ICAM-1 IC50, coincubated with tumor necrosis factor-alpha and compound for 20 hr, average of two runs, except MDL 107,695 where both values are shown)"
"CC(C)(C)c1cc(OC[Si](C)(C)c2ccco2)cc(C(C)(C)C)c1O [MDL 106,939, Phenol, 2,6-bis(1,1-dimethylethyl)-4-[(2-furanyldimethylsilyl)methoxy]-]",64,4.48,97.7,3.3 µg/mL of serum,4.89,92,123,106,83,120,108,0,88,130,92,391,–,–
"CC(C)(C)c1cc(OC[Si](C)(C)c2cccs2)cc(C(C)(C)C)c1O [MDL 107,965, Phenol, 2,6-bis(1,1-dimethylethyl)-4-[(dimethyl-2-thienylsilyl)methoxy]-]",57,–,82,12.6 µg/mL of serum,–,96,137,89,86,121,90,0,84,118,84,273,4.14,< 4.00
